The compounds below were run against IGF1-receptor (Homo sapiens, UniProt P08069) (assay: IGF1-Receptor Tyrosine Kinase Assay). Conditions: ATP 25 μM; FL-peptide 1.5 μM; IGF1-Receptor 14 nM; 60 min room temperature; Caliper LabChip 3000; read-out: IGF-1R IC50.
Sequence of IGF1-receptor (P08069 31-1367): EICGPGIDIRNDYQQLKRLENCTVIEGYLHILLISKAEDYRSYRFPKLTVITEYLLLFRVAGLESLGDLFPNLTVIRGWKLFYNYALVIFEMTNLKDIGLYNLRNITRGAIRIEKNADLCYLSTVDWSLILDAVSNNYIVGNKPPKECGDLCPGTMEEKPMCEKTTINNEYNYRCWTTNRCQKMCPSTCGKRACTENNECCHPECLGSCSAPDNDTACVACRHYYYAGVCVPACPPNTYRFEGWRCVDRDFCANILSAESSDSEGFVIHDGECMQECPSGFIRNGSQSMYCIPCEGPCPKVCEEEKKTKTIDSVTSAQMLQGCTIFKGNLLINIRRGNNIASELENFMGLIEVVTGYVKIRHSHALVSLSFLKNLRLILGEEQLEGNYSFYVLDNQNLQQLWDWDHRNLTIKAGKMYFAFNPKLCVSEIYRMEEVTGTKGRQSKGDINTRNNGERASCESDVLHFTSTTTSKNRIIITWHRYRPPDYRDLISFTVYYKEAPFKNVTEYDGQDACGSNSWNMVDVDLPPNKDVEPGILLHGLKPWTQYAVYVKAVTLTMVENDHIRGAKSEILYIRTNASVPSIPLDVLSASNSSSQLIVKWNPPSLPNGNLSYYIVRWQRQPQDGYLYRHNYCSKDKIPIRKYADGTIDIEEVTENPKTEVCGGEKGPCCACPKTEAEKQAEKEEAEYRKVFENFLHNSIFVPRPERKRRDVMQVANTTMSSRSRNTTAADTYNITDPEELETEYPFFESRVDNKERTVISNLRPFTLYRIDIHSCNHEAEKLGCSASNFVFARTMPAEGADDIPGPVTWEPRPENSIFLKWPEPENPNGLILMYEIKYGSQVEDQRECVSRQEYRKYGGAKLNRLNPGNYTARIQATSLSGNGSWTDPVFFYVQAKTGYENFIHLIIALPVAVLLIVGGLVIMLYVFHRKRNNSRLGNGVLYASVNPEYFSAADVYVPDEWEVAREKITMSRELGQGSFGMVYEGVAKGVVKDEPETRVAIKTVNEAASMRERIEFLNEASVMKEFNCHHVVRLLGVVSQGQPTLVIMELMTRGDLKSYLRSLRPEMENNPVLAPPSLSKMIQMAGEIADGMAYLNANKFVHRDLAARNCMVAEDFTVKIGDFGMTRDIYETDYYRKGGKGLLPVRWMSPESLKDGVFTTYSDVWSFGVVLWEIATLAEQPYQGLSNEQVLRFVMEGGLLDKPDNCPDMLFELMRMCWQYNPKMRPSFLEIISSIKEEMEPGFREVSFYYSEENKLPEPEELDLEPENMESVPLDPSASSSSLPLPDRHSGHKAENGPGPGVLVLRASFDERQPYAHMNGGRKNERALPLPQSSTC
Assay type: biochemical
Protocol: D. IGF1-Receptor Tyrosine Kinase Assay
The assays were performed in U-bottom 384-well plates. The final assay volume was 30 μl prepared from 15 μl additions of enzyme and substrates (fluoresceinated IGF1R substrate peptide and ATP) and test compounds in assay buffer (100 mM HEPES pH 7.4, 10 mM MnCl2, 0.015% Brij35 and 4 mM DTT). The reaction was initiated by the combination of IGF1-receptor with substrates and test compounds. The reaction was incubated at room temperature for 60 min. and terminated by adding 30 μl of 35 mM EDTA to each sample. The reaction mixture was analyzed on the Caliper LabChip 3000 by electrophoretic separation of the fluorescent substrate and phosphorylated product. Inhibition data were calculated by comparison to no enzyme control reactions for 100% inhibition and vehicle-only reactions for 0% inhibition. The final concentration of reagents in the assays is ATP, 25 μM; FL-peptide, 1.5 μM; IGF1-Receptor, 14 nM; and DMSO, 1.6%. Dose response curves were generated to determine the concentration required inhibiting 50% of kinase activity (IC50). Compounds were dissolved at 10 mM in dimethylsulfoxide (DMSO) and evaluated at eleven concentrations, each in duplicate. IC50 values were derived by non-linear regression analysis
Compounds described herein were tested in the above assay.
An IC50 of over 25000 nM was found for `CCOC(=O)c1cccc(Sc2cc(Nc3ncnn4cccc34)n[nH]2)c1` [Example 1, Ethyl 3-(3-(pyrrolo[1,2-f][1,2,4]triazin-4-ylamino)-1H-pyrazol-5-ylthio)benzoate] in this work. An IC50 of 12.4 nM was found for `O=C(NC1CN(S(=O)(=O)c2ccccc2)C1)c1cccc(Sc2cc(Nc3ncnn4cccc34)n[nH]2)c1` [Example 3, N-(1-(Phenylsulfonyl)azetidin-3-yl)-3-(3-pyrrolo[1,2-f][1,2,4]triazin-4-ylamino-1H-pyrazol-5-ylthio)benzamide] in this work. An IC50 of 4470 nM was found for `NC(=O)c1cccc(Sc2cc(Nc3ncnn4cccc34)n[nH]2)c1` [Example 4, 3-(3-(Pyrrolo[1,2-f][1,2,4]triazin-4-ylamino)-1H-pyrazol-5-ylthio)benzamide] in this work. An IC50 of 295 nM was found for `CC(C)(C)OC(=O)N1CC(NC(=O)c2cccc(Sc3cc(Nc4ncnn5cccc45)n[nH]3)c2)C1` [Example 5] in this work. An IC50 of 3190 nM was found for `O=C(NCCc1c[nH]cn1)c1cccc(Sc2cc(Nc3ncnn4cccc34)n[nH]2)c1` [Example 8, N-(2-(1H-Imidazol-4-yl)ethyl)-3-(3-(pyrrolo[1,2-f][1,2,4]triazin-4-ylamino)-1H-pyrazol-5-ylthio)benzamide] in this work. An IC50 of 15.1 nM was found for `O=C(NC1CN(S(=O)(=O)c2ccc(F)cc2)C1)c1cccc(Sc2cc(Nc3ccccn3)n[nH]2)c1` [Example 10, N-(1-(4-Fluorophenylsulfonyl)azetidin-3-yl)-3-(3-(pyridin-2-ylamino)-1H-pyrazol-5-ylthio)benzamide] in this work.
